Test results published in patent publication US6362369B1, “Phthalic acid diamide derivatives fluorine-containing aniline compounds as starting material, agricultural and horticultural insecticides, and a method for application of the insecticides” (Nihon Nohyaku Co., Ltd., priority 1997, dated 2002).

Experiments:
[1] = system: diamondback moth (Plutella xylostella); assay: Insecticidal effect on diamondback moth (Test Example 1); type: in vivo; details: mortality judged according to the criterion shown in Test Example 1
In short: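 Triplicate groups of 10 insects were scored: six days after immersion of oviposited Chinese cabbage seedlings and holding at 25 °C post air-drying, hatched larvae were counted. Mortality derived from these counts and insecticidal effect judged by a set criterion.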

[2] = system: rice leafroller (Cnaphalocrocis medinalis); assay: Insecticidal effect on rice leafroller (Test Example 3); type: in vivo; details: 500 ppm, rice lamina dip, third-instar larvae, four days after inoculation, 25° C., humidity 70%
In short: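 Insecticidal effect is judged by a predefined criterion from dead/alive counts four days after infesting air-dried lamina with third-instar larvae, kept on moistened filter paper at 25° C, 70% humidity.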

| SMILES | Insecticidal effect on diamondback moth (Test Example 1), judged grade [1] | Insecticidal effect on rice leafroller (Test Example 3), judged grade [2] |
| --- | --- | --- |
| Cc1ccc(Cl)cc1NC(=O)c1c(F)cccc1C(=O)NC(C)C [compound 546] | A (100) | A (100) |
| Cc1cc(C(F)(F)C(F)(F)F)ccc1NC(=O)c1c(F)cccc1C(=O)NC(C)C [compound 551] | A (100) | A (100) |
| Cc1cc(OC(F)(F)C(Cl)(Cl)Cl)ccc1NC(=O)c1c(F)cccc1C(=O)NC(C)C [compound 552] | A (100) | B (99-90) |
| Cc1cc(OC(F)(F)C(F)(F)Br)ccc1NC(=O)c1c(F)cccc1C(=O)NC(C)C [compound 554] | A (100) | A (100) |
| Cc1cc(C(F)(F)C(F)(F)C(F)(F)F)ccc1NC(=O)c1c(F)cccc1C(=O)NC(C)C [compound 555] | A (100) | B (99-90) |
| CC(C)NC(=O)c1cccc(F)c1C(=O)Nc1ccc(OC(F)(F)F)cc1Cl [compound 562] | A (100) | A (100) |
| CC(C)NC(=O)c1cccc(F)c1C(=O)Nc1ccc(OC(F)(F)F)cc1Br [compound 563] | A (100) | A (100) |
| Cc1cc(OC(F)(F)F)ccc1NC(=O)c1c(F)cccc1C(=O)NC(C)C [compound 564] | A (100) | B (99-90) |
| Cc1cc(OC(F)(F)Br)ccc1NC(=O)c1c(F)cccc1C(=O)NC(C)C [compound 565] | A (100) | A (100) |
| Cc1cc(OC(F)(F)C(F)F)ccc1NC(=O)c1c(F)cccc1C(=O)NC(C)C [compound 566] | A (100) | B (99-90) |
| Cc1cc(Sc2ccc(Cl)cc2)ccc1NC(=O)c1c(F)cccc1C(=O)NC(C)C [compound 575] | A (100) | A (100) |
| Cc1cc(Oc2ccc(C(F)(F)F)cn2)ccc1NC(=O)c1c(F)cccc1C(=O)NC(C)C [compound 576] | A (100) | C (89-80) |
| Cc1cc(Oc2ncc(C(F)(F)F)cc2Cl)ccc1NC(=O)c1c(F)cccc1C(=O)NC(C)C [compound 577] | A (100) | A (100) |
| CC(C)NC(=O)c1cccc(F)c1C(=O)Nc1ccc2c(c1)OCO2 [compound 580] | A (100) | A (100) |
| Cc1cc(Cl)ccc1NC(=O)c1c(F)ccc(F)c1C(=O)NC(C)C [compound 582] | A (100) | A (100) |
| CC(C)NC(=O)c1c(C(=O)Nc2ccccc2)cccc1[N+](=O)[O-] [compound 585] | A (100) | A (100) |
| CC(C)NC(=O)c1c(C(=O)Nc2ccccc2Cl)cccc1[N+](=O)[O-] [compound 586] | A (100) | D (79-50) |
| CC(C)NC(=O)c1c(C(=O)Nc2ccccc2Br)cccc1[N+](=O)[O-] [compound 589] | A (100) | A (100) |
| CC(C)NC(=O)c1c(C(=O)Nc2ccc([N+](=O)[O-])cc2)cccc1[N+](=O)[O-] [compound 596] | D (79-50) | D (79-50) |
| CCc1ccccc1NC(=O)c1cccc([N+](=O)[O-])c1C(=O)NC(C)C [compound 602] | A (100) | A (100) |
| CC(C)NC(=O)c1c(C(=O)Nc2ccccc2C(C)C)cccc1[N+](=O)[O-] [compound 603] | B (99-90) | C (89-80) |
| CC(C)NC(=O)c1c(C(=O)Nc2ccc(C(C)C)cc2)cccc1[N+](=O)[O-] [compound 604] | A (100) | D (79-50) |
| CC(C)NC(=O)c1c(C(=O)Nc2ccc(C(F)(F)C(F)(F)C(F)(F)C(F)(F)F)cc2)cccc1[N+](=O)[O-] [compound 611] | A (100) | A (100) |

| SMILES | Insecticidal effect on diamondback moth (Test Example 1), judged grade [1] | Insecticidal effect on rice leafroller (Test Example 3), judged grade [2] |
| --- | --- | --- |
| COc1ccccc1NC(=O)c1cccc([N+](=O)[O-])c1C(=O)NC(C)C [compound 612] | A (100) | D (79-50) |
| CC(C)NC(=O)c1c(C(=O)Nc2cccc(OC(F)F)c2)cccc1[N+](=O)[O-] [compound 616] | A (100) | D (79-50) |
| CC(C)NC(=O)c1c(C(=O)Nc2cccc(SC(F)(F)F)c2)cccc1[N+](=O)[O-] [compound 623] | A (100) | A (100) |
| CC(C)NC(=O)c1c(C(=O)Nc2cc(Cl)ccc2Cl)cccc1[N+](=O)[O-] [compound 634] | A (100) | D (79-50) |
| CC(C)NC(=O)c1c(C(=O)Nc2ccc(F)c(Cl)c2)cccc1[N+](=O)[O-] [compound 643] | A (100) | A (100) |
| Cc1cccc(NC(=O)c2cccc([N+](=O)[O-])c2C(=O)NC(C)C)c1C [compound 647] | A (100) | B (99-90) |
| Cc1ccc(C)c(NC(=O)c2cccc([N+](=O)[O-])c2C(=O)NC(C)C)c1 [compound 649] | A (100) | C (89-80) |
| Cc1ccc(NC(=O)c2cccc([N+](=O)[O-])c2C(=O)NC(C)C)c(Cl)c1 [compound 656] | A (100) | A (100) |
| CC(C)NC(=O)c1c(C(=O)Nc2ccc(C(F)(F)F)cc2Cl)cccc1[N+](=O)[O-] [compound 660] | A (100) | A (100) |
| CC(C)NC(=O)c1c(C(=O)Nc2cc(C(F)(F)F)ccc2Cl)cccc1[N+](=O)[O-] [compound 661] | B (99-90) | D (79-50) |
| Cc1cccc(Cl)c1NC(=O)c1cccc([N+](=O)[O-])c1C(=O)NC(C)C [compound 666] | A (100) | D (79-50) |
| Cc1ccc(NC(=O)c2cccc([N+](=O)[O-])c2C(=O)NC(C)C)c(C)c1Cl [compound 670] | A (100) | D (79-50) |
| Cc1cc(Br)ccc1NC(=O)c1cccc([N+](=O)[O-])c1C(=O)NC(C)C [compound 671] | A (100) | D (79-50) |
| CC(C)NC(=O)c1c(C(=O)Nc2ccc(Cl)cc2C(F)(F)F)cccc1[N+](=O)[O-] [compound 679] | A (100) | A (100) |
| Cc1cc(NC(=O)c2cccc([N+](=O)[O-])c2C(=O)NC(C)C)ccc1Br [compound 680] | A (100) | D (79-50) |
| Cc1cc(C(F)(F)F)ccc1NC(=O)c1cccc([N+](=O)[O-])c1C(=O)NC(C)C [compound 682] | A (100) | A (100) |
| COc1ccc(NC(=O)c2cccc([N+](=O)[O-])c2C(=O)NC(C)C)c(C)c1 [compound 688] | A (100) | A (100) |
| Cc1cc(OC(C)C)ccc1NC(=O)c1cccc([N+](=O)[O-])c1C(=O)NC(C)C [compound 690] | A (100) | A (100) |
| COc1c(C)ccc(NC(=O)c2cccc([N+](=O)[O-])c2C(=O)NC(C)C)c1C [compound 694] | A (100) | A (100) |
| Cc1cc(OCC(F)(F)F)ccc1NC(=O)c1cccc([N+](=O)[O-])c1C(=O)NC(C)C [compound 697] | A (100) | A (100) |
| CC(C)NC(=O)c1c(C(=O)Nc2ccc(OC(F)(F)F)cc2Cl)cccc1[N+](=O)[O-] [compound 704] | A (100) | A (100) |
| Cc1c(NC(=O)c2cccc([N+](=O)[O-])c2C(=O)NC(C)C)ccc(OC(F)F)c1Cl [compound 717] | A (100) | A (100) |
